Test [1] concerns the target T1, V1a (Homo sapiens, UniProt P37288). Briefly: In-vitro receptor binding assay (3H-arginine-8-vasopressin), V1a. The essentials: (§1)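 Radioligand is 3H-arginine-8-vasopressin, incubated with receptor for one hour at room temperature, then filtered on GF/C plates and counted by scintillation. Non-specific binding was defined with 1.25 μM vasopressin, and results are given as % inhibition.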

Another test deals with human V2 receptor (Homo sapiens, UniProt P30518). Briefly: In-vitro receptor binding assay (3H-arginine-8-vasopressin), V2. The essentials: as §1
Chain of human V2 receptor (P30518 whole entry): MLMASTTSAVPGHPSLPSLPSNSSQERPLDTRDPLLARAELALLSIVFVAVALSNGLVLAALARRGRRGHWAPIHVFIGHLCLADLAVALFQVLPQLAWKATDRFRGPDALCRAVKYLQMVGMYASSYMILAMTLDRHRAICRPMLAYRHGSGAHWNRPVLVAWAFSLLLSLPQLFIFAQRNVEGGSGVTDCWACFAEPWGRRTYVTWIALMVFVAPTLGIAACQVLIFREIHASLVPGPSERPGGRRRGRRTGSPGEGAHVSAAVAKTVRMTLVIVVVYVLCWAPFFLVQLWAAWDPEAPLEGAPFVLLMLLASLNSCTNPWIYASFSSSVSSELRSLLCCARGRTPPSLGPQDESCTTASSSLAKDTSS
In test [2] the target is T1, V1a. Briefly: V1a vasopressin receptor functional activity (inhibition of vasopressin-induced intracellular calcium, FLIPR, V1a-HEK cells). The note with it: HEK-293 cells transfected with human V1a receptor; vasopressin challenge. Type of test: cell-based. Also noted: expressed in transfected cells. As for the experimental part:
[formula] (B) V1a Vasopressin Receptor Functional Activity
The V1a receptor is a G-protein coupled receptor, which upon activation triggers an increase in intracellular calcium mobilization. To evaluate compounds for their functional V1a receptor activity, HEK-293 cells were transfected with the human V1a receptor (V1a-HEK cells). HEK-293 cells were grown in DMEM (Dulbecco's modified Eagle Media) supplemented with 10% FBS and glutamine. HEK-cells were passed biweekly by trypsinization and seeded into 96 well plates at 33,000 cells per well. HEK-293 cells were transfected with human V1a receptor DNA using DMRIE-C reagent from Life Technologies. Stable lines were generated by selecting cells grown in culture media containing geneticin. After growing in Packard Clear-View black 96 well plates for 4-6 days, V1a-HEK cells were loaded with the calcium-sensitive fluorescence dye, FLUO-3 AM. Changes in cell fluorescence were quantitated using FLIPR (Fluorometric Imaging Plate Reader; Molecular Devices, Sunnyvale, Calif.). Test compounds were first added to the cells and the resulting changes in fluorescence measured to detect receptor agonistic activity. Five minutes later the cells were challenged with vasopressin to test compounds for their antagonistic activity. Receptor antagonists inhibit the ability of vasopressin to stimulate increases in intracellular fluorescence. IC50's were calculated.

The mark [3] stands for this setting: read-out: Receptor Binding V1a (% Inh. @ concentration in μM).
[4] abbreviates: read-out: Receptor Binding V2 (% Inh. @ concentration in μM).

T1 sequence (P37288 whole entry): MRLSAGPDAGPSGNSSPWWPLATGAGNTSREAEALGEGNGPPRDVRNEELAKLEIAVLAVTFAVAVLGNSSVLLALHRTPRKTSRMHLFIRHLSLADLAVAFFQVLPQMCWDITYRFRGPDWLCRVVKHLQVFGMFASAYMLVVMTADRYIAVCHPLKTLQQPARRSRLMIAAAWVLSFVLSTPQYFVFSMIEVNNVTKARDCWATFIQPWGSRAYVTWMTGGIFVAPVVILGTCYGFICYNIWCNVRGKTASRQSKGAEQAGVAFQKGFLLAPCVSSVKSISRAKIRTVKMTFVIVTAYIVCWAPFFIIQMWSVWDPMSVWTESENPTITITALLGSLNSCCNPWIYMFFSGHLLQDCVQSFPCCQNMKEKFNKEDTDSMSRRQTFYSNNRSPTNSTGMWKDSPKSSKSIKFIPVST

Usually IC50 stands for the point on the concentration scale where inhibition reaches its midpoint. Regarding `O=C(Nc1ccc(C(=O)N2CCC3(C=C(CO)CC3)Cc3ccccc32)cc1)c1ccccc1-c1ccccc1` (stereo not shown) [Compound 1, 4-(2-Phenylbenzoyl-4-aminobenzoyl)-3′-(hydroxymethyl)-4-aza-[6,4]-spiro-[5,6]-benzoundec-2′-ene], the results for the IC50 on V1a [1], at human V2 receptor and at V1a [2] were 0.009 µM, 0.018 µM and below 0.01 µM, respectively.
The matching figures for `CNCC1=CC2(CC1)CCN(C(=O)c1ccc(NC(=O)c3ccccc3-c3ccccc3)cc1)c1ccccc1C2` (stereo not shown) [Compound 3, 4-(2-Phenylbenzoyl-4-aminobenzoyl)-3′-(methylaminomethyl)-4-aza-[6,4]-spiro-[5,6]-benzoundec-2′-ene]: 0.009 µM, 0.018 µM and below 0.01 µM.
With `O=C(O)C1=CC2(CC1)CCN(C(=O)c1ccc(NC(=O)c3ccccc3-c3ccccc3)cc1)c1ccccc1C2` (stereo not shown) [Compound 4, 4-(2-Phenylbenzoyl-4-aminobenzoyl)-3′ (carboxyl)-4-aza-[6,4]-spiro-[5,6]-benzoundec-2′-ene], the IC50 on V1a [1] is 0.037 µM; at human V2 receptor, 0.014 µM; on V1a [2], 0.02 µM.
In the case of `CC(=O)N(C)CC1=CC2(CC1)CCN(C(=O)c1ccc(NC(=O)c3ccccc3-c3ccccc3)cc1)c1ccccc1C2` (stereo not shown) [Compound 5, 4-(2-Phenylbenzoyl-4-aminobenzoyl)-3′-(N-methyl-N-acetylaminomethyl)-4-aza-[6,4]-spiro-[5,6]-benzoundec-2′-ene], the IC50 on V1a [1] is 0.02 µM; at human V2 receptor, 0.022 µM; on V1a [2] it was below 0.01 µM.
For the compound `O=C(NCCO)C1=CC2(CC1)CCN(C(=O)c1ccc(NC(=O)c3ccccc3-c3ccccc3)cc1)c1ccccc1C2` (stereo not shown) [Compound 6], the figures for the IC50 on V1a [1], at human V2 receptor and on V1a [2] were 0.006 µM, 0.011 µM and 0.005 µM, respectively.
The matching figures for `Cc1ccc(F)cc1C(=O)Nc1ccc(C(=O)N2CCC3(C=C(C(=O)NCCN(C)C)CC3)Cc3ccccc32)cc1` (stereo not shown) [Compound 13]: 0.005 µM, 0.018 µM and 0.07 µM.
The matching figures for `Cc1ccc(F)cc1C(=O)Nc1ccc(C(=O)N2CCC3(C=C(C(=O)NCCCN(C)C)CC3)Cc3ccccc32)cc1` (stereo not shown) [Compound 14]: 0.005 µM, 0.023 µM and 0.059 µM.
Take `COC(=O)CNCC1=CC2(CC1)CCN(C(=O)c1ccc(NC(=O)c3cc(F)ccc3C)cc1)c1ccccc1C2` (stereo not shown) [Compound 15]: the 50% inhibitory concentration (IC50) amounted to 0.007 µM at V1a [1], 0.1 µM on human V2 receptor and 0.135 µM at V1a [2].
In the case of `O=C(NCCN1CCOCC1)C1=CC2(CC1)CCN(C(=O)c1ccc(NC(=O)c3ccccc3F)cc1)c1ccccc1C2` (stereo not shown) [Compound 17], the IC50 on V1a [1] came to 0.014 µM; on V1a [2], 0.227 µM. Moreover, the inhibition at 0.1 µM at human V2 receptor (@ 0.1 μM, read-out: Receptor Binding V2 (% Inh. @ concentration in μM)) came to 18%.
Turning to `N#Cc1ccc(C(=O)N2CCC3(C=CCCC3)Cc3ccccc32)cc1` (stereo not shown) [Compound 33], the IC50 on V1a [1] is 0.13 µM; on V1a [2] it was above 1 µM.
Take `COC(=O)C1=CC2(CC1)CCN(C(=O)c1ccc(-n3nccc3C)c(N)c1)c1ccccc1C2` (stereo not shown) [Compound 212]: the inhibition at 0.125 µM on V1a [1] (setting [3]) was 29%. Besides, at human V2 receptor (setting [4]), the inhibition at 1 µM came to 16%.
The matching figures for `COC(=O)C1=CC2(CC1)CCN(C(=O)c1ccc(-n3ccc(C)n3)c(N(C)C)c1)c1ccccc1C2` (stereo not shown) [Compound 213]: 63% and 55%.
For `COC(=O)C1=CC2(CC1)CCN(C(=O)c1ccc(NC(=O)c3cc(F)ccc3F)cc1)c1ccccc1C2` (stereo not shown) [Compound 218], the IC50 at V1a [1] is 0.046 µM. Further, the inhibition at 0.2 µM at human V2 receptor (@ 0.2 μM, read-out: Receptor Binding V2 (% Inh. @ concentration in μM)) stood at 23%.
As for `CC(=O)N1CCC(Oc2ccc(C(=O)N3CCC4(C=CCCC4)Cc4ccccc43)cc2)CC1` (stereo not shown) [Compound 224, 4-(4-(N-acetylpiperidin-4-yloxy)benzoyl)-4-aza-[6,5]-spiro-[5,6]-benzododec-2′-ene], the inhibition at 0.1 µM on V1a [1] (@ 0.1 μM, read-out: Receptor Binding V1a (% Inh. @ concentration in μM)) came out at 41%. Further, the “Receptor Binding V2 (% Inh.)” value on human V2 receptor (concentration not given) stood at 0%.

The values above are taken from US7691844B2, “Nonpeptide substituted spirobenzoazepines as vasopressin antagonists” (Ortho-McNeil Pharmaceutical, Inc., priority 2000, dated 2010).
